According to EPA's ToxRefDB 2:

How the values were obtained:
rat [1] = conditions: Subchronic oral toxicity in rodents, sprague dawley, Gavage/Intubation, dose end: 90 day, group: systemic
rat [2] = conditions: Combined chronic toxicity/carcinogenicity, Crl: CD (SD) IGS BR, Oral, Feed, dose end: 104 week, group: systemic
rat [3] = conditions: Developmental neurotoxicity study, sprague dawley, Oral, Gavage/Intubation, dose end: 72 PND, group: cannot be grouped
rat [4] = conditions: Subchronic oral toxicity in rodents, Sprague Dawley, Feed, dose end: 14 week, group: systemic
rat [5] = conditions: Multigenerational reproductive toxicity study, sprague dawley, Oral, Gavage/Intubation, dose end: 2 generation
rat [6] = conditions: Subchronic oral toxicity in rodents, fischer, Feed, dose end: 13 week, group: systemic
mouse [7] = conditions: Carcinogenicity, b6c3f1, Oral, Feed, dose end: 105 week, group: systemic
rat [8] = conditions: Carcinogenicity, fischer, Oral, Feed, dose end: 105 week, group: systemic
mouse [9] = conditions: Subchronic oral toxicity in rodents, b6c3f1, Feed, dose end: 13 week, group: systemic
rat [10] = conditions: Prenatal developmental toxicity study, sprague dawley, Oral, Gavage/Intubation, dose end: 17 GD
rabbit [11] = conditions: Prenatal developmental toxicity study, new zealand white, Oral, Gavage/Intubation, dose end: 18 GD, group: maternal
rabbit [12] = conditions: Prenatal developmental toxicity study, other, Oral, Gavage/Intubation, dose end: 27 GD
mouse [13] = conditions: Carcinogenicity, cd1, Oral, Feed, dose end: 78 week, group: systemic
dog = conditions: Chronic toxicity; beagle; Oral; Capsule; dose end: 12 month; group: systemic; systemic / clinical chemistry / alkaline phosphatase (alp/alk) / alkaline phosphatase (alp/alk) + systemic / organ weight / liver / absolute…
rat [14] = conditions: Combined chronic toxicity/carcinogenicity, sprague dawley, Oral, Feed, dose end: 104 week, group: systemic
rat [15] = conditions: Subchronic oral toxicity in rodents, sprague dawley, Feed, dose end: 90 day, group: systemic, systemic / in life observation / body weight / body weight gain + systemic / in life observation / food consumption / food consumption + …
mouse [16] = conditions: Subchronic oral toxicity in rodents, cd1, Feed, dose end: 90 day, group: systemic
rat [17] = conditions: Multigenerational reproductive toxicity study, sprague dawley, Oral, Feed, dose end: 2 generation
[18] = systemic / pathology microscopic / stomach / acanthosis + systemic / pathology microscopic / stomach / hyperkeratosis + systemic / clinical …
[19] = systemic / in life observation / body weight / body weight + systemic / organ weight / liver / relative to body weight + systemic / …
[20] = systemic / in life observation / body weight / body weight + systemic / in life observation / body weight / body weight gain + systemic / in…
[21] = systemic / clinical chemistry / aspartate aminotransferase (ast/sgot) / aspartate aminotransferase (ast/sgot) + systemic / clinical …
[22] = group: offspring, developmental / developmental landmark / eye opening / eye opening + developmental / developmental landmark / pinna unfolding / pinna …
[23] = group: parental, systemic / in life observation / body weight / body weight + systemic / in life observation / body weight / body weight gain + systemic / in…
[24] = group: reproductive, reproductive / offspring survival early / litter viability other / total litter loss
[25] = group: reproductive, reproductive / reproductive performance / gestational length / gestational length + reproductive / reproductive performance / implantations…
[26] = systemic / in life observation / body weight / body weight + systemic / in life observation / body weight / body weight gain + systemic / …
[27] = systemic / in life observation / body weight / body weight gain
[28] = systemic / pathology microscopic / blood vessel / [other] + systemic / in life observation / clinical signs / [other] + systemic / in life …
[29] = systemic / pathology microscopic / blood / leukemia mononuclear + systemic / pathology microscopic / esophagus / squamous cell papilloma + …
[30] = systemic / pathology microscopic / mammary gland / fibroadenoma + systemic / pathology microscopic / oral mucosa / squamous cell papilloma…
[31] = systemic / in life observation / food consumption / food consumption + systemic / organ weight / brain / absolute + systemic / organ weight…
[32] = group: developmental, systemic / in life observation / body weight / fetal weight
[33] = group: maternal, systemic / in life observation / body weight / body weight gain + systemic / in life observation / food consumption / food consumption
[34] = systemic / in life observation / body weight / body weight + systemic / in life observation / clinical signs / soft stools + systemic / in …
[35] = group: maternal, reproductive / reproductive performance / aborted / aborted + reproductive / reproductive performance / premature delivery / premature …
[36] = systemic / pathology microscopic / mammary gland / adenoacanthoma
[37] = systemic / clinical chemistry / triglycerides / triglycerides
[38] = group: offspring, systemic / in life observation / body weight / offspring (pup) weight + systemic / in life observation / body weight / offspring (pup) …

C1CN(CN2CCOCC2)CCO1 [4,4-Methylenedimorpholine]
LOAEL (rat [1]; systemic / pathology microscopic / stomach / acanthosis + systemic / pathology microscopic / stomach / hyperkeratosis): 50 mg/kg/day | NEL (rat [1]; [18]): 15 mg/kg/day | NOAEL (rat [1]; [18]): 15 mg/kg/day | LEL (rat [1]; systemic / pathology microscopic / stomach / acanthosis + systemic / pathology microscopic / stomach / hyperkeratosis + systemic / in life …): 50 mg/kg/day

O=S(=O)([O-])C(F)(F)C(F)(F)C(F)(F)C(F)(F)C(F)(F)C(F)(F)C(F)(F)C(F)(F)F.[K+] [PFOS-K]
LOAEL (rat [2]; [19]): > 1 mg/kg/day | NOAEL (rat [2]; [19]): ≥ 1 mg/kg/day | NEL (rat [2]; systemic / pathology microscopic / liver / adenoma + systemic / in life observation / body weight / body weight + systemic / organ weight / …): 0.025 mg/kg/day | LEL (rat [2]; systemic / pathology microscopic / liver / degeneration + systemic / pathology microscopic / liver / eosinophilic focus): 0.1 mg/kg/day | LOAEL (rat [3]; systemic / in life observation / body weight / body weight): 1 mg/kg/day | LEL (rat [3]; [20]): 1 mg/kg/day | NEL (rat [3]; [20]): 0.3 mg/kg/day | NOAEL (rat [3]; [20]): 0.3 mg/kg/day | NEL (rat [4]; systemic / clinical chemistry / alanine aminotransferase (alt/sgpt) / alanine aminotransferase (alt/sgpt) + systemic / clinical chemistry / …): 0.1 mg/kg/day | LOAEL (rat [4]; [21]): > 1 mg/kg/day | NOAEL (rat [4]; [21]): ≥ 1 mg/kg/day | LEL (rat [4]; systemic / pathology microscopic / liver / hypertrophy + systemic / pathology microscopic / liver / vacuolization): 0.25 mg/kg/day | LEL (rat [5]; [22]): 1.6 mg/kg/day | LOAEL (rat [5]; [22]): > 3.2 mg/kg/day | NEL (rat [5]; [22]): 0.4 mg/kg/day | NOAEL (rat [5]; [22]): ≥ 3.2 mg/kg/day | LOAEL (rat [5]; [23]): > 3.2 mg/kg/day | NEL (rat [5]; [23]): 0.1 mg/kg/day | NOAEL (rat [5]; [23]): ≥ 3.2 mg/kg/day | LEL (rat [5]; group: parental, systemic / in life observation / body weight / body weight gain): 0.4 mg/kg/day | LEL (rat [5]; [24]): 1.6 mg/kg/day | NEL (rat [5]; [24]): 0.4 mg/kg/day | LOAEL (rat [5]; [25]): > 3.2 mg/kg/day | NOAEL (rat [5]; [25]): ≥ 3.2 mg/kg/day

OCC(CO)(CBr)CBr [2,2-Bis(bromomethyl)-1,3-propanediol]
LOAEL (rat [6]; [26]): 400 mg/kg/day | NOAEL (rat [6]; [26]): 200 mg/kg/day | LEL (rat [6]; [27]): 100 mg/kg/day | NEL (rat [6]; [27]): < 100 mg/kg/day | LEL (mouse [7]; [28]): 35 mg/kg/day | NEL (mouse [7]; [28]): < 35 mg/kg/day | LOAEL (mouse [7]; systemic / pathology microscopic / lung / hyperplasia): 80 mg/kg/day | NOAEL (mouse [7]; systemic / pathology microscopic / lung / hyperplasia + systemic / pathology microscopic / blood vessel / [other] + systemic / pathology …): 40 mg/kg/day | LOAEL (rat [8]; [29]): > 430 mg/kg/day | NOAEL (rat [8]; [29]): ≥ 430 mg/kg/day | LEL (rat [8]; [30]): 100 mg/kg/day | NEL (rat [8]; [30]): < 100 mg/kg/day | LOAEL (mouse [9]; [26]): 500 mg/kg/day | NOAEL (mouse [9]; [26]): 200 mg/kg/day | LEL (mouse [9]; [31]): 100 mg/kg/day | NEL (mouse [9]; [31]): < 100 mg/kg/day

CC(C)n1cc2c3c(cccc31)[C@H]1C[C@@H](C(=O)NC3CCCCC3)CN(C)[C@@H]1C2 [Amesergide]
LEL (rat [10]; [32]): 30 mg/kg/day | LOAEL (rat [10]; [32]): > 30 mg/kg/day | NEL (rat [10]; [32]): 10 mg/kg/day | NOAEL (rat [10]; [32]): ≥ 30 mg/kg/day | LEL (rat [10]; [33]): 30 mg/kg/day | LOAEL (rat [10]; [33]): > 30 mg/kg/day | NEL (rat [10]; [33]): 10 mg/kg/day | NOAEL (rat [10]; [33]): ≥ 30 mg/kg/day | LOAEL (rabbit [11]; [34]): > 15 mg/kg/day | NEL (rabbit [11]; [34]): 0.2 mg/kg/day | NOAEL (rabbit [11]; [34]): ≥ 15 mg/kg/day | LEL (rabbit [11]; systemic / in life observation / food consumption / food consumption): 2 mg/kg/day

FC(F)(F)c1ccc(OCCCOc2c(Cl)cc(OCC=C(Cl)Cl)cc2Cl)nc1 [Pyridalyl]
LEL (rabbit [12]; [32]): 150 mg/kg/day | LOAEL (rabbit [12]; [32]): 150 mg/kg/day | NEL (rabbit [12]; [32]): 50 mg/kg/day | NOAEL (rabbit [12]; [32]): 50 mg/kg/day | LEL (rabbit [12]; [35]): 150 mg/kg/day | LOAEL (rabbit [12]; [35]): 150 mg/kg/day | NEL (rabbit [12]; [35]): 50 mg/kg/day | NOAEL (rabbit [12]; [35]): 50 mg/kg/day | LEL (mouse [13]; systemic / hematology / mean corpuscular (cell) volume (mcv) / mean corpuscular (cell) volume (mcv)): 5.04 mg/kg/day | NEL (mouse [13]; systemic / hematology / mean corpuscular (cell) volume (mcv) / mean corpuscular (cell) volume (mcv) + systemic / hematology / lymphocyte / …): 1.57 mg/kg/day | LOAEL (mouse [13]; [20]): 99 mg/kg/day | NOAEL (mouse [13]; [20]): 4.78 mg/kg/day | LEL (dog): 80 mg/kg/day | LOAEL (dog): > 80 mg/kg/day | NEL (dog): 20 mg/kg/day | NOAEL (dog): ≥ 80 mg/kg/day | LOAEL (rat [14]; [20]): 17.1 mg/kg/day | NOAEL (rat [14]; [26]): 3.4 mg/kg/day | LEL (rat [14]; [36]): 1.23 mg/kg/day | NEL (rat [14]; [36]): < 1.23 mg/kg/day | LEL (rat [15]): 56 mg/kg/day | LOAEL (rat [15]): 56 mg/kg/day | NEL (rat [15]): 5.56 mg/kg/day | NOAEL (rat [15]): 5.56 mg/kg/day | LEL (mouse [16]; [37]): 9.5 mg/kg/day | NEL (mouse [16]; [37]): < 9.5 mg/kg/day | LOAEL (mouse [16]; [26]): 378 mg/kg/day | NOAEL (mouse [16]; [26]): 81.7 mg/kg/day | LOAEL (rat [17]; [38]): 83.7 mg/kg/day | NEL (rat [17]; [38]): 3.4 mg/kg/day | NOAEL (rat [17]; [38]): 17 mg/kg/day | LEL (rat [17]; group: offspring, systemic / organ weight / thymus / nos): 17 mg/kg/day | LOAEL (rat [17]; [23]): 68.7 mg/kg/day | NOAEL (rat [17]; [23]): 13.8 mg/kg/day | LEL (rat [17]; group: parental, systemic / organ weight / testes / absolute): 17 mg/kg/day | NEL (rat [17]; group: parental, systemic / organ weight / testes / absolute + systemic / in life observation / body weight / body weight + systemic / in life observation / …): 3.4 mg/kg/day
